Holding throughout (assay type): in vivo
The subject of assay [1] is old mice (male C57BL6/Njcl). The assay is described as follows: Open field test. As to conditions: ManNAc 5 mg/ml in tap water ad libitum. On the procedure:
(§1) • 1) Object and place recognition task experiments were performed on male C57BL6/Njcl mice in three groups. Outline of the experiments is shown in FIG. 1. • Old control group: Old mice (reared from 47 to 66 weeks of age, n=10) were allowed to drink tap water ad libitum. • Old ManNAc recipient group: Old mice (reared from 47 to 66 weeks of age, n=10) were allowed to drink tap water with ManNAc (5 mg/ml) dissolved therein ad libitum. • Young control group: Young mice (reared from 8 to 18 weeks of age, n=10) were allowed to drink tap water ad libitum. • 2) Experimental procedures: An open field test was performed to examine the tendency toward anxiety and locomotor activity, and this was followed by place recognition task and object recognition task in accordance with conventional methods (see FIG. 2). • 3) Experimental results (FIGS. 3 and 4)
Open field test (FIG. 3): Moving distance in an unfamiliar planar space was compared between the old mice and the young mice.

Assay [2] has as its system middle-aged mice. The assay is described as follows: Telemeter monitoring of heart rate, body temperature and locomotor activity. As to conditions: administration of ManNAc. An excerpt:
(§2) Mice are awake during active time in the dark phase and conversely cease their activities and have a sleep in the light phase. It is known that in aged mice, the wake-sleep rhythm is deranged to the extent of lighter sleep in the light phase and decreased activities during wake time in the dark phase. It is also known that the aging-related derangement of wake and sleep is related to hypothalamic activity and accompanied by elevated body temperatures and increased heart rates. Because these symptoms are similar to those in human patients in their middle age to senescence who complain of dissatisfaction with sleep, they serve as an appropriate model for examining the influences on sleep.
(§3) Middle-aged mice [three reared from 43 to 66 weeks of age under light-dark cycle conditions (12-hour light phase-12-hour dark phase)] were allowed to drink ManNAc solution (5 mg/ml tap water) ad libitum. During 1 week before and after the free access to the solution, […], body temperature, and locomotor activity were monitored over time using a telemeter. Also analyzed were electroencephalograms recorded during wake and sleep times in both the ManNAc non-ingestion period and the free-access period. To measure electroencephalograms and electromyograms, a mouse electroencephalogram transmitter (F20EET, Data Sciences) was implanted in each animal under anesthesia (pentobarbital, 30 mg/kg, i.v.), and electroencephalograms, electromyograms, body temperature, and locomotor activity were continuously recorded using ART (Data Sciences Company). The electroencephalograms thus obtained were analyzed using NeuroScore (Data Sciences Company), and the sleep events were classified into REM sleep and slow wave sleep. The lengths of each sleep stage were totaled and compared among the mice before and after administration and young mice.

Assay [3] has as its system old mice (male C57BL6/Njcl). The assay is described as follows: Place recognition task. As to conditions: ManNAc 5 mg/ml in tap water ad libitum, paired t-test, p<0.05. On the procedure:
as §1
(§4) When ManNAc was administered to the old mice (FIG. 4C), the exploratory behavior times for the new place (paired t-test, p<0.05) and the new object (paired t-test, p<0.001) normalized in all tasks; a capability of recognition memory equivalent to that of the young mice was shown.

In assay [4] the test system is middle-aged mice. The assay is described as follows: Sleep analysis by electroencephalograms and electromyograms (aging-related sleep disorders).
Description: as §2, §3

Assay [5] deals with old mice (male C57BL6/Njcl). The assay is described as follows: Object recognition task. The following applies: ManNAc 5 mg/ml in tap water ad libitum, paired t-test, p<0.001. On the procedure:
as §1, §4

[6] abbreviates: middle-aged mice receiving ManNAc, began to be observed on day 2 after administration.

For the molecule `CC(=O)N[C@@H]1C(O)O[C@H](CO)[C@@H](O)[C@@H]1O` (stereo partly drawn) [ManNAc, N-acetyl-D-mannosamine], the total motor activity entry in assay [1] is recorded as “without influencing total motor activity”. Besides, in assay [1] (vs old control), the “rise in the tendency toward anxiety (time of stay in the central portion)” value is reported as “tended to decrease slightly, but the difference was statistically insignificant”. Further, in the assay on middle-aged mice [2], the “change in heart rate due to behavioral change (difference between the light and dark phases)” value is “became evident”; the “difference in locomotor activity between the light and dark phases” value was “increased”. For the same molecule, the body temperature entry with middle-aged mice [2] (non-active period) is recorded as “declined”. The “exploratory behavior time for the new place” value in assay [3] is given as “normalized”. Moreover, the “day after the start of administration on which the effect on sleep begins to be evident” value in the assay on middle-aged mice [4] (extension of REM sleep time, sleep-wake rhythm) turned out to be 2 days. Further, in the assay on middle-aged mice [4] (setting [6]), the REM sleep result is “increased”, the slow wave sleep result is given as “decreased” and the wake time entry is given as “remarkably increased”. In addition, the “Wake, daily percentage” value with middle-aged mice [4] (middle-aged mice, 4 days after administration, ManNAc 5 mg/ml tap water ad libitum (before administration 1.8)) is listed as 2.2%. In addition, in the assay on middle-aged mice [4] (middle-aged mice, 4 days after administration, ManNAc 5 mg/ml tap water ad libitum (before administration 5.4)), the “REM sleep, daily percentage” value was 10.0%. Also, the “Wake (major), daily percentage” value with middle-aged mice [4] (middle-aged mice, 4 days after administration, ManNAc 5 mg/ml tap water ad libitum (before administration 12.7)) is 15.3%. For the same molecule, the “Slow wave sleep, daily percentage” value in the assay with middle-aged mice [4] (middle-aged mice, 4 days after administration, ManNAc 5 mg/ml tap water ad libitum (before administration 80.0)) came out at 72.5%. Besides, the “exploratory behavior time for the new object” value in assay [5] was “normalized”.

Source of the values: patent publication US9271995B2, “Agent for ameliorating brain hypofunction” (The University of Tokyo, priority 2008, dated 2016).
